The text below walks through data of US10653172B2, “Natural stilbenes as sweeteners or sweetener enhancer” (Analyticon Discovery GmbH, priority 2015, dated 2020).

For one experiment, the system named is panel of 4 panelists. In words: Organoleptic test of intrinsic sweet taste against sucrose. The class given is in vivo. The following applies: 0.5 mg/ml (500 ppm) in non-carbonated mineral water; for sweetness compared with a solution of sucrose 20 mg/ml (control solution): control sucrose 20 mg/ml. Here is the method: Organoleptic Test of the Compounds of Formula (I) Against Sucrose
Intrinsic sweet taste: The isolated pure compounds were dissolved in non-carbonated mineral water (“Fonsana Quelle”) in a concentration of 0.5 mg/ml (500 ppm). The sweet taste of each sample was compared by a panel of 4 panelists with a solution of sucrose in a concentration of 20 mg/ml.

The subject of experiment [1] is panel of 3 sweet sensitive panelists. The experiment is described as follows: Organoleptic test of sweetness enhancement in combination with sucrose. The following applies: concentration stated to be near the sweetness detection threshold. The class given is in vivo. Here is the method:
Organoleptic Test of the Compounds of Formula (I) in Combination with Known Sweeteners
Combination of (I) with Sucrose.
The sweetness enhancement properties of compound Aa and Bb was determined using a sample having a concentration of 100 μg/ml compound Aa and Bb, which is near the sweetness detection threshold, in 7% sucrose solution. The compound Aa and Bb sample was directly compared to samples of 7%, 8% or 9% sucrose, and panelists were instructed to compare the sweetness intensity of the samples. The comparisons were carried out by a panel of 3 sweet sensitive panelists. All samples were presented to panelists in 5 ml aliquots at ambient temperature. Panelists compared the compound Aa and Bb sample to each of the sucrose samples.

For `COc1cc(/C=C/c2cc(O)cc(O)c2)ccc1O[C@@H]1O[C@H](CO)[C@@H](O)[C@H](O)[C@H]1O` [Compound Aa, Gnetifolin E], in the experiment on panel of 4 panelists, the off-taste entry was “no significant off-taste” and the “sweetness compared with a solution of sucrose 20 mg/ml (control solution)” value is listed as “comparable with the control solution”. In experiment [1], the sweetness detection threshold was about 100 µg/mL.
For `OC[C@H]1O[C@@H](Oc2ccc(/C=C/c3cc(O)cc(O)c3)cc2O)[C@H](O)[C@@H](O)[C@@H]1O` [Compound Bb, Piceatannol 4′-O-β-D-glucopyranoside], in the experiment on panel of 4 panelists, the off-taste entry was “no significant off-taste” and the “sweetness compared with a solution of sucrose 20 mg/ml (control solution)” value is listed as “comparable with the control solution”. Moreover, the sweetness detection threshold in experiment [1] was about 100 µg/mL.
